For test [1], the target named is T1, Rat recombinant PDE10A (rPDE10A2) (Rattus norvegicus, UniProt Q9QYJ6).
T1 construct: inferred from the Ni metal chelate purification; made in house; host or cells: Sf9 insect cells (baculovirus)
T1 sequence (Q9QYJ6 1-794): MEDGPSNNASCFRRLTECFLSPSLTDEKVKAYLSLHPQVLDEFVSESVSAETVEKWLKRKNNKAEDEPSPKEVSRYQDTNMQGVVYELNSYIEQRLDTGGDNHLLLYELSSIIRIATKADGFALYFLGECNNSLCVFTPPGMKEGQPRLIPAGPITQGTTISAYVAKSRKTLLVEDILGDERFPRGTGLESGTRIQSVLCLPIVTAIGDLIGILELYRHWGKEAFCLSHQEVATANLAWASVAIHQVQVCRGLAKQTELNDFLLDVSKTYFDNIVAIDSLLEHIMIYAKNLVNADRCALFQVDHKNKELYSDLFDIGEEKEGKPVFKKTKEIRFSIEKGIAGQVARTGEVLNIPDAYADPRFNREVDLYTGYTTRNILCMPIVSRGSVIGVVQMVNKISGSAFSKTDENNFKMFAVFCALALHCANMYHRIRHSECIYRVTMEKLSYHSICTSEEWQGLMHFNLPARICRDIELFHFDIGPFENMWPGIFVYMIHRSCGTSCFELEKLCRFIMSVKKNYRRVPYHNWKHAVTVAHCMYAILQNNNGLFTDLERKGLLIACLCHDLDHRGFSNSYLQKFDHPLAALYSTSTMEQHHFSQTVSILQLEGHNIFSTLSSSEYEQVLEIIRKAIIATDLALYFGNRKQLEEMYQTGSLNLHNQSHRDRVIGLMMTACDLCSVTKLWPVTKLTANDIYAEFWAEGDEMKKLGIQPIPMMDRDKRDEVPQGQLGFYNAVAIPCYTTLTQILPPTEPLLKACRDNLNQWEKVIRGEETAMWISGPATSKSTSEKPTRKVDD
In words: In vitro assay PDE10A (SPA, 3H-cAMP). Format: biochemical. The procedure, abridged: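 Scintillation proximity read-out (cpm) of 3H-cAMP hydrolysis after 60 min at room temperature, with enzyme-free blanks and 1% DMSO controls. Enzyme was Sf9-expressed, Ni-sepharose-purified rat rPDE10A2; substrate 60 nM cAMP with tracer, buffer Tris pH 7.8 containing MgCl2 and EGTA.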

Test [2] deals with other members of the PDE family (Homo sapiens, UniProt O00408). In words: In vitro PDE selectivity assay (SPA), other members of the PDE family (protocols in Table A). Format: biochemical. The conditions noted are these: hPDE2A; read-out: PDE 2A (expressed as pIC50) (converted). As for the experimental part:
Rat recombinant PDE10A (rPDE10A2) was expressed in Sf9 cells using a recombinant rPDE10A baculovirus construct. Cells were harvested after 48 h of infection and the rPDE10A protein was purified by metal chelate chromatography on Ni-sepharose 6FF. Tested compounds were dissolved and diluted in 100% DMSO to a concentration 100 fold of the final concentration in the assay. Compound dilutions (0.4 μl) were added in 384 well plates to 20 μl of incubation buffer (50 mM Tris pH 7.8, 8.3 mM MgCl2, 1.7 mM EGTA). 10 μl of rPDE10A enzyme in incubation buffer was added and the reaction was started by addition of 10 μl substrate to a final concentration of 60 nM cAMP and 0.008 μCi ^3H-cAMP. The reaction was incubated for 60 minutes at room temperature. After incubation, the reaction was stopped with 20 μl of stop solution consisting of 17.8 mg/ml PDE SPA (scintillation proximity assay) beads. After sedimentation of the beads during 30 minutes the radioactivity was measured in a Perkin Elmer Topcount scintillation counter and results were expressed as cpm. For blanc values the enzyme was omitted from the reaction and replaced by incubation buffer. Control values were obtained by addition of a final concentration of 1% DMSO instead of compound. The same assay principle is applied for the measurement of the affinity of the compound for other members of the PDE family with appropriate modifications in incubation buffer, substrate concentration, incubation time and stop solution. An overview of the different protocols is presented in table A. A best fit curve is fitted by a minimum sum of squares method to the plot of % of control value substracted with blanc value versus compound concentration and the half maximal inhibitory concentration (IC50) value is derived from this curve.
The compounds of the invention are generally selective for PDE10 compared to other PDEs and there are a few that also have affinity for PDE1B1, 4D3 and 5A3.

Test [3] has as its system apomorphine-induced stereotypy in rats. The experiment in a line: Apomorphine-induced stereotypy in rats (APO). Format: in vivo. Conditions: Rattus norvegicus, n.d.: found not active at threshold dose 2.5 mg/kg or 10 mg/kg (a). As to the method:
Apomorphine (1.0 mg/kg, i.v.)-induced stereotypy (compulsive sniffing, licking, chewing) was scored every 5 min over the first hour after injection of apomorphine, following a 1 hour interval pre-treatment with the test compound. The score system was: (3) pronounced, (2) moderate, (1) slight, and (0) absent.

Setting [4] is: Table 4 in vitro selectivity, read-out: PDE 10A2 (expressed as pIC50) (converted).
Where [5] appears, read: pIC50 corresponds to the −log IC50 expressed in mol/L, read-out: PDE10A2 pIC50 (converted).
[6] abbreviates: po, * not soluble, tested orally as a suspension.

Experimental findings from patent US20120220581A1, “IMIDAZO[1,2-b]PYRIDAZINE DERIVATIVES AND THEIR USE AS PDE10 INHIBITORS” (Janssen-Cilag, S.A., priority 2009, published 2012) are described below.

Like-named read-outs stand apart in the source and are kept apart here.

Chain of other members of the PDE family (O00408 whole entry): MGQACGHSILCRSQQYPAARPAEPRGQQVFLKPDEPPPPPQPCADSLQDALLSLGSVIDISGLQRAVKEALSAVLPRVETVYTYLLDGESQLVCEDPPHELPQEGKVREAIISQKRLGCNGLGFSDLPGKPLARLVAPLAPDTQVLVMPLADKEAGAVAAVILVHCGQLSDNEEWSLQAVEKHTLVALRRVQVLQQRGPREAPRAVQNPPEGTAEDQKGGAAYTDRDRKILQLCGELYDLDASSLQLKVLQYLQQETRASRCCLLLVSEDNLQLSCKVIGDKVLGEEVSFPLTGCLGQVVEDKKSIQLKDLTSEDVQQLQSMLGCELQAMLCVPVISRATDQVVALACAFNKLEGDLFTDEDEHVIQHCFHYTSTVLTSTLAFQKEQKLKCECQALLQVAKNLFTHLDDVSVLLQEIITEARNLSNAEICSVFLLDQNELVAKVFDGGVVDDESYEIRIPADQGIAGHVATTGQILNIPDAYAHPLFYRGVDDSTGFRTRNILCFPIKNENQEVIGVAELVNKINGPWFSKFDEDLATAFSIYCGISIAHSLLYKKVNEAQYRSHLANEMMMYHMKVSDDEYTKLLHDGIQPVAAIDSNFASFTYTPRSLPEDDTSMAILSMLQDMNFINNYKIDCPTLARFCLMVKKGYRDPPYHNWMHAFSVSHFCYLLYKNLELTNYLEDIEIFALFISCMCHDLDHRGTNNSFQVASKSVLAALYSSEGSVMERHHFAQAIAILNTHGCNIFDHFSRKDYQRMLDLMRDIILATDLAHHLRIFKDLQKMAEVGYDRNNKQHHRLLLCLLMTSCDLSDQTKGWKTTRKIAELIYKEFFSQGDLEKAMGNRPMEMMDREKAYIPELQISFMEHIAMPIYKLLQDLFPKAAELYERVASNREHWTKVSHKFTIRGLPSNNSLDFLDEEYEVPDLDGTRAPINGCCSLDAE

Consider `COCCc1ccc(-c2cnc3c(-c4ccncc4)ccnn23)cn1` [compound 57, 3-[6-(2-methoxyethyl)-3-pyridinyl]-8-(4-pyridinyl)-imidazo[1,2-b]pyridazine], for which the IC50 in test [1] (setting [4]) was 0.427 µM; in test [1] (setting [5]), 0.427 µM; in test [2], over 10 µM.

In the case of `COCCOc1ccc(-c2c(C3CC3)nc3c(N4CCOCC4)cc(C)nn23)cn1` [compound 74, 2-cyclopropyl-3-[6-(2-methoxyethoxy)-3-pyridinyl]-6-methyl-8-(4-morpholinyl)-imidazo[1,2-b]pyridazine], the IC50 in test [1] (setting [4]) is 0.589 µM; in test [1] (setting [5]), 0.589 µM; in test [2], over 10 µM.

On to `Cc1cc(N2CCOCC2)c2nc(C3CC3)c(-c3ccc(N4CCOCC4)nc3)n2n1` [compound 75, 2-cyclopropyl-6-methyl-8-(4-morpholinyl)-3-[6-(4-morpholinyl)-3-pyridinyl]-imidazo[1,2-b]pyridazine], for which the IC50 in test [1] (setting [4]) is 0.447 µM; in test [1] (setting [5]), 0.447 µM; in test [2], over 10 µM.

With `CCc1ccc(-c2c(C3CC3)nc3c(N4CCOCC4)cc(C)nn23)cn1` [compound 84, 2-cyclopropyl-3-(6-ethyl-3-pyridinyl)-6-methyl-8-(4-morpholinyl)-imidazo[1,2-b]pyridazine], the IC50 in test [1] (setting [4]) is 0.372 µM; in test [1] (setting [5]) it was 0.372 µM; in test [2] it was over 10 µM.

`COCCc1ccc(-c2c(C3CC3)nc3c(N4CCOCC4)cc(C(F)(F)F)nn23)cn1` [compound 85, 2-cyclopropyl-3-[6-(2-methoxyethyl)-3-pyridinyl]-8-(4-morpholinyl)-6-(trifluoromethyl)-imidazo[1,2-b]pyridazine]: the IC50 in test [1] (setting [4]) is 0.661 µM; in test [1] (setting [5]), 0.661 µM; in test [2], over 10 µM.

With `Cc1nc2c(N3CCOCC3)cc(C3CC3)nn2c1-c1ccc(N2CCOCC2)nc1` [compound 94, 6-cyclopropyl-2-methyl-8-(4-morpholinyl)-3-[6-(4-morpholinyl)-3-pyridinyl]-imidazo[1,2-b]pyridazine], the IC50 in test [1] (setting [4]) is 0.38 µM; in test [1] (setting [5]), 0.38 µM; in test [2], over 10 µM.

Take `Cc1cc(N2CCOCC2)c2nc(C3CC3)c(-c3ccc(N4CCNCC4)nc3)n2n1` [compound 100, 2-cyclopropyl-6-methyl-8-(4-morpholinyl)-3-[6-(1-piperazinyl)-3-pyridinyl]-imidazo[1,2-b]pyridazine]: the IC50 is 0.724 µM in test [1] (setting [4]), 0.724 µM in test [1] (setting [5]) and over 10 µM in test [2].

As for `Cc1cc(N2CCOCC2)c2nc(C)c(-c3ccc(C4CC4)nc3)n2n1` [compound 110, 3-(6-cyclopropyl-3-pyridinyl)-2,6-dimethyl-8-(4-morpholinyl)-imidazo[1,2-b]pyridazine], the IC50 in test [1] (setting [4]) is 0.331 µM; in test [1] (setting [5]) it was 0.331 µM; in test [2], over 10 µM.

With `c1cc(N2CCOCC2)c2ncc(-c3ccc(C4CC4)nc3)n2n1` [compound 112, 3-(6-cyclopropyl-3-pyridinyl)-8-(4-morpholinyl)-imidazo[1,2-b]pyridazine], the IC50 in test [1] (setting [4]) is 0.427 µM; in test [1] (setting [5]), 0.427 µM; in test [2], 8.13 µM.

Take `Cc1nc2c(N3CCOCC3)ccnn2c1-c1cnn(Cc2cccnc2)c1` [compound 115, 2-methyl-8-(4-morpholinyl)-3-[1-(3-pyridinylmethyl)-1H-pyrazol-4-yl]-imidazo[1,2-b]pyridazine]: the ED50 in test [3] (setting [6]) is over 10 mg/kg. In test [1] (setting [5]), the IC50 was 0.0355 µM.

As to `Cc1nc2c(N3CCOCC3)ccnn2c1-c1cn[nH]c1` [compound 116, 2-methyl-8-(4-morpholinyl)-3-(1H-pyrazol-4-yl)-imidazo[1,2-b]pyridazine], the ED50 in test [3] (setting [6]) is over 10 mg/kg. In test [1] (setting [5]), the IC50 was 0.132 µM.

For `COCCn1cc(-c2c(C3CC3)nc3c(N4CCOCC4)ccnn23)cn1` [compound 119, 2-cyclopropyl-3-[1-(2-methoxyethyl)-1H-pyrazol-4-yl]-8-(4-morpholinyl)-imidazo[1,2-b]pyridazine], the median effective dose (ED50) in test [3] (setting [6]) is over 10 mg/kg. Also, the IC50 in test [1] (setting [5]) is 0.0617 µM.

In test [3] (not further tested), `COCCn1cc(-c2c(C(C)C)nc3c(N4CCOCC4)ccnn23)cn1` [compound 120, 3-[1-(2-methoxyethyl)-1H-pyrazol-4-yl]-2-(1-methylethyl)-8-(4-morpholinyl)-imidazo[1,2-b]pyridazine] gave an ED50 of over 10 mg/kg. The IC50 in test [1] (setting [5]) was 0.692 µM.

Consider `COCCn1cc(-c2c(C(F)(F)F)nc3c(-c4ccncc4)ccnn23)cn1` [compound 122, 3-[1-(2-methoxyethyl)-1H-pyrazol-4-yl]-8-(4-pyridinyl)-2-(trifluoromethyl)-imidazo[1,2-b]pyridazine], for which the ED50 in test [3] (not further tested) is over 2.5 mg/kg. In test [1] (setting [5]), the IC50 was 0.0302 µM.

In turn, `COC(C)(C)Cn1cc(-c2c(C)nc3c(-c4ccncc4)ccnn23)cn1` [compound 123, 3-[1-(2-methoxy-2-methylpropyl)-1H-pyrazol-4-yl]-2-methyl-8-(4-pyridinyl)-imidazo[1,2-b]pyridazine] showed a 50% effective dose (ED50) in test [3] (not further tested) of over 2.5 mg/kg. In addition, the IC50 in test [1] (setting [5]) is 0.0275 µM.

Regarding `COCCn1cc(-c2c(C)nc3c(-c4ccncc4)cc(C4CC4)nn23)cn1` [compound 126, 6-cyclopropyl-3-[1-(2-methoxyethyl)-1H-pyrazol-4-yl]-2-methyl-8-(4-pyridinyl)-imidazo[1,2-b]pyridazine], in test [3] (not further tested), the ED50 was over 2.5 mg/kg. Besides, the IC50 in test [1] (setting [5]) was 0.0501 µM.

In the case of `COCCn1cc(-c2c(C(F)(F)F)nc3c(N4CCOCC4)ccnn23)cn1` [compound 139, 3-[1-(2-methoxyethyl)-1H-pyrazol-4-yl]-8-(4-morpholinyl)-2-(trifluoromethyl)-imidazo[1,2-b]pyridazine], the median effective dose (ED50) in test [3] (setting [6]) is over 2.5 mg/kg. In addition, the IC50 in test [1] (setting [5]) was 0.0692 µM.

Regarding `FC(F)(F)Cn1cc(-c2c(C3CC3)nc3c(-c4ccncc4)ccnn23)cn1` [compound 141, 2-cyclopropyl-8-(4-pyridinyl)-3-[1-(2,2,2-trifluoroethyl)-1H-pyrazol-4-yl]-imidazo[1,2-b]pyridazine], in test [3] (setting [6]), the 50% effective dose (ED50) was over 2.5 mg/kg. Further, the IC50 in test [1] (setting [5]) is 0.01 µM.

As to `COCCc1ccc(-c2c(C(F)(F)F)nc3c(N4CCOCC4)ccnn23)cn1` [compound 145, 3-[6-(2-methoxyethyl)-3-pyridinyl]-8-(4-morpholinyl)-2-(trifluoromethyl)-imidazo[1,2-b]pyridazine], the ED50 in test [3] (not further tested) was over 2.5 mg/kg. In addition, the IC50 in test [1] (setting [5]) was 0.0589 µM.

Take `COCCOc1cncc(-c2c(C)nc3c(-c4ccncc4)ccnn23)c1` [compound 149, 3-[5-(2-methoxyethoxy)-3-pyridinyl]-2-methyl-8-(4-pyridinyl)-imidazo[1,2-b]pyridazine]: in test [3] (not further tested), the 50% effective dose (ED50) is over 2.5 mg/kg. The IC50 in test [1] (setting [5]) is 0.151 µM.

What is called ED50 is the midpoint of the dose-response relation. Lower therefore signals greater potency.
